Key:
RPE cells [1] = assay: Effect of NAM in the TNT-induced EMT model, qPCR; type: cell-based, human; settings: 10 mM NAM
Procedure: In a parallel experiment, the effect of NAM was tested in an EMT model. EMT was induced in RPE cells using 10 ng/ml TGFβ1 and TNFα. RPE cells were trypsinized and passaged into a 24 well plate. 24 hours after passaging, RPE cells were treated with TGFβ1 and TNFα (TNT condition) for 7 days. To test the effect of NAM, we added 10 mM NAM or vehicle to the medium used for EMT model (using TNT). EMT associated protein transcripts including FOXS1 were analyzed by qPCR.

Primary human RPE lines = assay: qPCR of EMT and RPE fate transcripts in primary RPE cultured with NAM for 21 days; type: cell-based; settings: 10 mM NAM, versus vehicle
Procedure: Cadaver donor globes were received from the National Disease Research Interchange (Philadelphia, Pa., USA), and RPE cells were isolated and grown to establish a RPE monolayer (Blenkinsop et al., (2015), Investigative Ophthalmology & Visual Science 56, 7085-7099; Blenkinsop et al., (2013), Methods Mol Biol 945, 45-65.). Primary human RPE lines were cultured in the presence of Nicotinamide (NAM) (Cat. #N0636; Sigma) at a concentration of 10 mM or vehicle (cell culture grade water) for 21 days. […] Additionally, RPE fate associated protein transcripts were tested by qPCR.

RPE cells [2] = assay: p38 blockade in TnT-induced RPE EMT (masses and EMT transcripts); type: cell-based, human; settings: TnT + 10 ng/ml SB202190, 5 days
Procedure: It was next reasoned that, if p38 is involved in the TnT-induced gene changes observed in SNAIL, SLUG and TWIST transcripts, then blocking p38 should result in the loss of TnT-induced EMT changes. Therefore an experiment was conducted to examine RPE-EMT with an additional condition of TnT+the p38 inhibitor SB202190.

RPE cells [3] = assay: FOXS1 expression in EMT+p38 inhibitor condition; type: cell-based, human; settings: TnT + p38 inhibitor, 5 days
RPE cells [4] = assay: Screening assay for agents that induce EMT: RPE morphology by light microscope; type: cell-based, human; settings: 10 ng/ml, 5 days, DMEM/F12 with 5% FBS
Procedure: RPE were plated at a confluency of 30,000 cells in 1 well of a 24-well plate in DMEM/F12 with 5% FBS, adding TGFβ (10 ng/ml) or TNFα (10 ng/ml), or both. After 5 days, RPE morphology was assessed by a light microscope.

[5] = tested on: hTERT HMEnt (HME) breast epithelial cell line; assay: EMT and FOXS1 transcripts in breast epithelial cells
p38 = p38 immunostaining (localization) in RPE cells; settings: DMEM 5% FBS, 5 days

Molecule: NC(=O)c1cccnc1 [NAM, Nicotinamide]
- EMT marker SNAIL (RPE cells [1]; as early as day 1 post induction of EMT): inhibited
- EMT marker FOXS1 (RPE cells [1]; by day 3 post induction of EMT): clear inhibition
- EMT marker SLUG (RPE cells [1]; by day 5 post induction of EMT): clear inhibition
- EMT associated marker FOXS1 (Primary human RPE lines): inhibited
- EMT associated marker SNAIL (Primary human RPE lines): inhibited
- RPE marker BEST1 expression (Primary human RPE lines): increased expression
- RPE marker RPE65 expression (Primary human RPE lines): increased expression

Molecule: Oc1ccc(-c2nc(-c3ccncc3)c(-c3ccc(F)cc3)[nH]2)cc1 [SB202190]
- SLUG transcription (RPE cells [2]): stayed at or near control levels
- SNAIL transcription (RPE cells [2]): stayed at or near control levels
- TWIST transcription (RPE cells [2]): stayed at or near control levels
- growth of three dimensional masses (RPE cells [2]): did not grow
- FOXS1 gene transcription (RPE cells [3]): elevated in the TnT condition, but not when the p38 inhibitor was added

Molecule: TGFβ: cytokine used at 10 ng/ml to induce EMT
- RPE morphology (RPE cells [4]): acquired a fibroblastic morphology
- FOXS1 transcript [5]: increased
- p38 localization (p38): localized predominantly perinuclearly

Molecule: TNFα
- RPE morphology (RPE cells [4]): acquired a fibroblastic morphology
- p38 localization (p38): found cytoskeletally
